Laboratory results as given in ChEMBL document CHEMBL1201862, “PubChem BioAssay data set” (2004).
Active and inactive are the calls of the source.

Assays:
SUMO E1/E2 = SUMO E1/E2 (Homo sapiens, UniProt P63279+Q9UBE0+Q9UBT2); experiment: SAR analysis of SUMOylation using HTRF in an in-Vitro dose response assay. [Related pubchem assays (depositor defined):AID2006, AID2011, AID2018, AID2069, AID2658]; format: functional
Hexokinase-1 = target: T1, Hexokinase-1 (Homo sapiens, UniProt P19367); experiment: HK1 enzyme activation by HKDC1 hits – biochemical, selectivity assay for HKDC1 activator project, dose response (AID 504762); format: functional
T1 sequence (P19367 whole entry): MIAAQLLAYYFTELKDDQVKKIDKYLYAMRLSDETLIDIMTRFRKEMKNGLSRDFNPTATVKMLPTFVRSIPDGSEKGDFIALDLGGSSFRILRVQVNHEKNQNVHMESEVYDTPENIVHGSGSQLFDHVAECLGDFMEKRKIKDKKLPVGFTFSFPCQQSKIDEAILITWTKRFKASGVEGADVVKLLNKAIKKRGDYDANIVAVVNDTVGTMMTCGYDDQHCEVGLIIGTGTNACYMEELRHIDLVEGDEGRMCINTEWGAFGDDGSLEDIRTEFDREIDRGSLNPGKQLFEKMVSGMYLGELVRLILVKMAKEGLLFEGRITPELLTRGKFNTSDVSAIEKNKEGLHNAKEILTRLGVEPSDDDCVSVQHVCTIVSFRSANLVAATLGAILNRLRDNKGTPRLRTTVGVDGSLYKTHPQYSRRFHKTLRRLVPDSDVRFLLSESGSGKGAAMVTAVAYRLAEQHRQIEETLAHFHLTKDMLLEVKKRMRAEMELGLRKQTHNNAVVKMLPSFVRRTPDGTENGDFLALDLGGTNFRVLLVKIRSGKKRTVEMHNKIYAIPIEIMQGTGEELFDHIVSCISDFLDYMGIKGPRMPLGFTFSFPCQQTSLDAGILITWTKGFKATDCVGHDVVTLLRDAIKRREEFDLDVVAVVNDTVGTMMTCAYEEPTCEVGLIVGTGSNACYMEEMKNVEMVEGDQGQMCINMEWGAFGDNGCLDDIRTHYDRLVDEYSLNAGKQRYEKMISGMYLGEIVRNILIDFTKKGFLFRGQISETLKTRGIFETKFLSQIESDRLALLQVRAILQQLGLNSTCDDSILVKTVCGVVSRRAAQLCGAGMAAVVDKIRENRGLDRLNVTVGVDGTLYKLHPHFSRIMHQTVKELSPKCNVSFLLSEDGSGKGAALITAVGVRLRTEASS

[1] = target: T2, Type-1 angiotensin II receptor (Homo sapiens, UniProt P30556); experiment: antagonism of angiotensin II type 1 receptor – cell-based, uHTS hits, selectivity assay for APJ receptor antagonist project, dose response (AID 463214); format: functional;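 also: antagonist potency against angiotensin II stimulated AT1 response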
T2 sequence (P30556 whole entry): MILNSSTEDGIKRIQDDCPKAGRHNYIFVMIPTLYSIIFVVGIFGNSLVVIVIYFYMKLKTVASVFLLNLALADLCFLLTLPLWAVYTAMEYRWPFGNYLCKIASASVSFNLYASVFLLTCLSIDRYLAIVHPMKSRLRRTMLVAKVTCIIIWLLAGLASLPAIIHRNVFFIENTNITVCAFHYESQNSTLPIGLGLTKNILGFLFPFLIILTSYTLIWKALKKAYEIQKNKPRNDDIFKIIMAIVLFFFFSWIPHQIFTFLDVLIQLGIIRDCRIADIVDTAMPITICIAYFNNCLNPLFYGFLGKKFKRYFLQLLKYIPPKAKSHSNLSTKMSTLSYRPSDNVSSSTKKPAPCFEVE

[2] = target: Lysine-specific demethylase 4C (Homo sapiens, UniProt Q9H3R0); experiment: inhibition of JMJD2C H3K9me3 demethylation – biochemical, DELFIA europium, cherry-picked samples, dose response (AID 488835); format: functional
Beta-galactosidase = Beta-galactosidase (Escherichia coli, UniProt Q8VNN2); experiment: PubChem AID 485352; format: functional
[3] = target: T3, RNA-binding protein pos-1 (Caenorhabditis elegans, UniProt G5EF15); experiment: disruptors of C. elegans POS-1 RNA interaction – biochemical, fluorescence polarization, dose response (AID 1964);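 also: purified POS-1 fused to maltose binding protein made in E. coli; potency of compounds blocking POS-1 binding to fluorescent RNA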
T3 sequence (G5EF15 whole entry): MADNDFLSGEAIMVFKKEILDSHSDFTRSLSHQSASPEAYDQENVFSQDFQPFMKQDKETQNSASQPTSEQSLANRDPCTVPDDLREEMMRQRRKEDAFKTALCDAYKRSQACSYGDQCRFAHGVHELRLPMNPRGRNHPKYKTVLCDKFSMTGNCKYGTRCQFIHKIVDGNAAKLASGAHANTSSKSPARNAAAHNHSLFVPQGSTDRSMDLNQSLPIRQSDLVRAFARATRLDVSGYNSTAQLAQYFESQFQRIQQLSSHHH

[4] = target: Lysine-specific demethylase 4A (Homo sapiens, UniProt O75164); experiment: inhibition of JMJD2A H3K9me3 demethylation – biochemical, DELFIA europium, cherry-picked samples, selectivity assay for GASC-1 inhibitor project, dose response (AID 488840)
Hexokinase HKDC1 = target: T4, Hexokinase HKDC1 (Homo sapiens, UniProt Q2TB90); experiment: activation of HKDC1 glucose phosphorylation – biochemical, W721R variant, dose response (AID 504730); format: functional
T4 sequence (Q2TB90 whole entry): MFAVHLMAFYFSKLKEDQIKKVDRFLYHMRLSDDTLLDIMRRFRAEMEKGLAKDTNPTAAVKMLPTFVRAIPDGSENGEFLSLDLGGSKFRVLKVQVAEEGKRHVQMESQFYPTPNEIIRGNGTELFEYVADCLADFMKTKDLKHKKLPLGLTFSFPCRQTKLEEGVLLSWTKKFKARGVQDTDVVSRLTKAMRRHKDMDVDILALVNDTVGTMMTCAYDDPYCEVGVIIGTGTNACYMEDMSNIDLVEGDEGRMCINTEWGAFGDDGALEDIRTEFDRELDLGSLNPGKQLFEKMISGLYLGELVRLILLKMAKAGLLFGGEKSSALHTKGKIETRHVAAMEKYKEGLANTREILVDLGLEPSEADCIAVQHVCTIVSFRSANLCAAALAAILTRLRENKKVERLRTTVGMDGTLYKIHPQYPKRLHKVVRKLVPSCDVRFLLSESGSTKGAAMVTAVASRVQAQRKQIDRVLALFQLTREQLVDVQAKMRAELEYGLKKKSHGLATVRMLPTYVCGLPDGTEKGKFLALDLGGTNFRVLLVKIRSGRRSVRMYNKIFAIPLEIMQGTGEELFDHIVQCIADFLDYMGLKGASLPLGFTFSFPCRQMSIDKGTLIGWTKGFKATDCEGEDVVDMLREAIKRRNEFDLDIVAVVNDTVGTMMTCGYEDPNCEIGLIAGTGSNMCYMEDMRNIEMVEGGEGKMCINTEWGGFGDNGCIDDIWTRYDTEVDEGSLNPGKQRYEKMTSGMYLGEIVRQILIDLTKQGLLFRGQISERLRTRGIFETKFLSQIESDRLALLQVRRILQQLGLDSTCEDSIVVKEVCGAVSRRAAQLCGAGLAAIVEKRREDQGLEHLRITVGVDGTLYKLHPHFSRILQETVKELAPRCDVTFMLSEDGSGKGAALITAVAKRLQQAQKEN

[5] = target: T5, Zinc finger protein mex-5 (Caenorhabditis elegans, UniProt Q9XUB2); experiment: potency of MEX-5 RNA-binding blockers – biochemical, C. elegans, fluorescence polarization, dose response (AID 1960)
T5 sequence (Q9XUB2 whole entry): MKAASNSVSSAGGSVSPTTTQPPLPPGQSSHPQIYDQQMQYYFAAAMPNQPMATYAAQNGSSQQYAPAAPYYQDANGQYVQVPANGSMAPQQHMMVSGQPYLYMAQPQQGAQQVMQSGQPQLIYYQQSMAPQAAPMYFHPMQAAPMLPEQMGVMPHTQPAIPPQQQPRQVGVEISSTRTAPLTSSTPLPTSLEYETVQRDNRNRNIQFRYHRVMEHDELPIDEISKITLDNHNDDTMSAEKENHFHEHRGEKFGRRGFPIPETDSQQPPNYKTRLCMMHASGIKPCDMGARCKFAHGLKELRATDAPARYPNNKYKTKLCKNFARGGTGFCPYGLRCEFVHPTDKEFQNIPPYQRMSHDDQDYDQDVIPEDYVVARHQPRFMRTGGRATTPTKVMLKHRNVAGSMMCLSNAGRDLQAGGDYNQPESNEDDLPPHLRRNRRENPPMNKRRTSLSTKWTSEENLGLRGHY

[6] = M. tuberculosis growth inhibition, HTS (AID 449762); format: functional
[7] = microbe, parasite or virus in culture; format: functional; conditions: Mycobacterium tuberculosis
Cytochrome P450 3A4 = Cytochrome P450 3A4 (Homo sapiens, UniProt P08684);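 also: CYP3A4 tested as one member of a cytochrome P450 panel screen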
[8] = target: T6, Alkaline phosphatase, tissue-nonspecific isozyme (Homo sapiens, UniProt P05186); experiment: activation of tissue-nonspecific alkaline phosphatase – biochemical, TNAP isozyme, human IAP uHTS hits, selectivity assay for human IAP activator project, dose response (AID 488886); format: functional;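 also: potency of compounds raising TNAP activity as a selectivity check on IAP activators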
T6 sequence (P05186 whole entry): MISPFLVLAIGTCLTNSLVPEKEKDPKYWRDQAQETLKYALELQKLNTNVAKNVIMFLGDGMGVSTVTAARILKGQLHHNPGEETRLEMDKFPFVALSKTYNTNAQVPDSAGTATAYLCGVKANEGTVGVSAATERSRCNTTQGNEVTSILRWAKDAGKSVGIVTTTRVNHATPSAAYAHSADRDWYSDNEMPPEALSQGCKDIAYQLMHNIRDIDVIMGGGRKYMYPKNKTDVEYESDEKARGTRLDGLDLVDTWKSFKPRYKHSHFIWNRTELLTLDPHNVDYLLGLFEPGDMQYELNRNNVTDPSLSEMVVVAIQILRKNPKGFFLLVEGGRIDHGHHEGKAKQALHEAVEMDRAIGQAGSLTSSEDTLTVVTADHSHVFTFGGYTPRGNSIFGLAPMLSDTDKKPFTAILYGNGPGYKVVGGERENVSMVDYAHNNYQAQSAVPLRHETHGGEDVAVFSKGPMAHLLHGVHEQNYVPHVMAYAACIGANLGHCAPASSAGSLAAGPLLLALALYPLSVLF

[9] = target: Intestinal-type alkaline phosphatase (Mus musculus, UniProt P24822); experiment: PubChem AID 488874; format: functional
[10] = target: T7, Intestinal-type alkaline phosphatase (Homo sapiens, UniProt P09923); experiment: human intestinal alkaline phosphatase activators, dose response, biochemical, luminescence, uHTS hits (AID 463120); format: functional
[11] = target: T7, Intestinal-type alkaline phosphatase; experiment: activation of human intestinal alkaline phosphatase – biochemical, luminescent, uHTS hits, set 2, dose response (AID 488817); format: functional;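 also: potency of activators that raise enzyme activity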
Candida albicans = experiment: C. albicans growth inhibition with fluconazole – CaCi-2 strain, Alamar Blue, dry powder, set 4, dose response (AID 488943); format: functional, organism-based

T7 sequence (P09923 whole entry): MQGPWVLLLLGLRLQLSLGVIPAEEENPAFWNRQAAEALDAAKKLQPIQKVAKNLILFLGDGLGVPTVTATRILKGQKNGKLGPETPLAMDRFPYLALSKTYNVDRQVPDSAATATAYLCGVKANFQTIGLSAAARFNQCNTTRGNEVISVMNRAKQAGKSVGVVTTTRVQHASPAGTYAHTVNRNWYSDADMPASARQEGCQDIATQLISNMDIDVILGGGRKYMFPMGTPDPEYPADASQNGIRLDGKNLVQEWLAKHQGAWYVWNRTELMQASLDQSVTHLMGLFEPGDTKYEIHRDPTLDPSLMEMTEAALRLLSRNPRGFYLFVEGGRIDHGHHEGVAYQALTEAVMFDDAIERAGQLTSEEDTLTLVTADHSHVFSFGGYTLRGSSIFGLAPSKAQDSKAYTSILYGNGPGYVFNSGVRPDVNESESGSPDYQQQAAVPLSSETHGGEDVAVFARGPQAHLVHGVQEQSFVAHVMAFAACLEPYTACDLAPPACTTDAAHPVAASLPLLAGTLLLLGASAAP
Chain of Lysine-specific demethylase 4C (Q9H3R0 whole entry): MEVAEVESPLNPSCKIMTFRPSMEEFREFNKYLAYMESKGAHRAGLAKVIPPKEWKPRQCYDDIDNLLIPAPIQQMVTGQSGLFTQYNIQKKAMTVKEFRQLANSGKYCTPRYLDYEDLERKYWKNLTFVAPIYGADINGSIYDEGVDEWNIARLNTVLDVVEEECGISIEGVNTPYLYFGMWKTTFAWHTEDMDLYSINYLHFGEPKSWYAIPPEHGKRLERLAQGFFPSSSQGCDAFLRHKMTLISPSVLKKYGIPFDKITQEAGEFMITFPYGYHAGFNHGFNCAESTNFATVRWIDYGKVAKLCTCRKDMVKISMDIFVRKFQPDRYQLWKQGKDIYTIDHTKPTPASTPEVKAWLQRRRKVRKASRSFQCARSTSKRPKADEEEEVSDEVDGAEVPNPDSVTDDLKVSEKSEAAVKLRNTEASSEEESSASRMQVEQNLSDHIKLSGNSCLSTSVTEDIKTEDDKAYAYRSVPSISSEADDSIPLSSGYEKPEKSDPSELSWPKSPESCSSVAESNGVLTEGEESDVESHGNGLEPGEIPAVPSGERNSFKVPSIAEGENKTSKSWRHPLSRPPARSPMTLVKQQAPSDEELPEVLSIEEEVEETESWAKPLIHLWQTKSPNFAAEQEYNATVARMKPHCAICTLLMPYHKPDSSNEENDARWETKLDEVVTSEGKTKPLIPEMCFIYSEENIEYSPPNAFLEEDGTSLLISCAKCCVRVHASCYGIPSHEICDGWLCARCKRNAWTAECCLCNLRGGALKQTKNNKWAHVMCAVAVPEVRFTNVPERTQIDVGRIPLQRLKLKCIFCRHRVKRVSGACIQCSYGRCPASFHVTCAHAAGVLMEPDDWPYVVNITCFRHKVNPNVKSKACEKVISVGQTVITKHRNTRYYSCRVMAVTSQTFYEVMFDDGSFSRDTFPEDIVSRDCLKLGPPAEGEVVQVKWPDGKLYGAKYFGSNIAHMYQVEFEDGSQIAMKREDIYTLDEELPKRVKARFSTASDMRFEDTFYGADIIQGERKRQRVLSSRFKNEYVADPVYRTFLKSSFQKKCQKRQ
Chain of Cytochrome P450 3A4 (P08684 whole entry): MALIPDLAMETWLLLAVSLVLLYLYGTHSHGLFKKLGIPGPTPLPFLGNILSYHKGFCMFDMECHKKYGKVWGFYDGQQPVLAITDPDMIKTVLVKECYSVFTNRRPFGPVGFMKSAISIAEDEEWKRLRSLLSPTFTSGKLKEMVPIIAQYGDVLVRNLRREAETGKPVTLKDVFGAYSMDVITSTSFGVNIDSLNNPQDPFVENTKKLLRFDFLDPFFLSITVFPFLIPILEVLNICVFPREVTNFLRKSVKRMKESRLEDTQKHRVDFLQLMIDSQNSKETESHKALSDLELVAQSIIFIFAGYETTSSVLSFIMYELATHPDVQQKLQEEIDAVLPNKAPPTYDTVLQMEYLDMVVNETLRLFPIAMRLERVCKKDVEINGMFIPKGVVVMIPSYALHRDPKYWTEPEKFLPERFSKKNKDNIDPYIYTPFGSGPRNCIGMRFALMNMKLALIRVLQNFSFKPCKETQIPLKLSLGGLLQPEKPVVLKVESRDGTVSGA
Chain of SUMO E1/E2 (Q9UBE0 whole entry): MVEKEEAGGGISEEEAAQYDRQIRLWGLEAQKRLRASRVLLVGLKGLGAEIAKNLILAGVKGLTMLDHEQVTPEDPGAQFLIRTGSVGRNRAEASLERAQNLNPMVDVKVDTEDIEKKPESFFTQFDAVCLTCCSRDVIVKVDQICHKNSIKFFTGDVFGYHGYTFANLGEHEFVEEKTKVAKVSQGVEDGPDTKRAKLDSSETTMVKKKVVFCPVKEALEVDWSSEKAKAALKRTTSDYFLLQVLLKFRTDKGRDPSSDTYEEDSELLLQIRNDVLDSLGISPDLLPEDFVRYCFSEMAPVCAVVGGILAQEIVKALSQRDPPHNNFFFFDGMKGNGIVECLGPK
Chain of SUMO E1/E2 (Q9UBT2 whole entry): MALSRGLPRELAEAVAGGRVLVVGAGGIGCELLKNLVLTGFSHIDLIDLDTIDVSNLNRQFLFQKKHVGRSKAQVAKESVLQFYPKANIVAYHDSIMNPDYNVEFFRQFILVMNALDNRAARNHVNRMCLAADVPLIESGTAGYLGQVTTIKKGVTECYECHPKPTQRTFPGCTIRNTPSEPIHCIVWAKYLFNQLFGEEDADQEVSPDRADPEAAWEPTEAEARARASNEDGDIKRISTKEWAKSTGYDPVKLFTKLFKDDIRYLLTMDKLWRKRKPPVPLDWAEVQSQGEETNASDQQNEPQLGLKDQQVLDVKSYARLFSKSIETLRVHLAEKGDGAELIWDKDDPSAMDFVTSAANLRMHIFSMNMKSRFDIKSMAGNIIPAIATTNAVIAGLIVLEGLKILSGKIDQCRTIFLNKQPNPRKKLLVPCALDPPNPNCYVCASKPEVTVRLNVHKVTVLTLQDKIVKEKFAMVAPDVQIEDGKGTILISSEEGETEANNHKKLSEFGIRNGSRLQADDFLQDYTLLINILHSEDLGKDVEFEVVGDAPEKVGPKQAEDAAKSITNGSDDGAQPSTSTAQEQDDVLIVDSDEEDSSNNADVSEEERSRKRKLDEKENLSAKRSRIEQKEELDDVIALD
Chain of SUMO E1/E2 (P63279 whole entry): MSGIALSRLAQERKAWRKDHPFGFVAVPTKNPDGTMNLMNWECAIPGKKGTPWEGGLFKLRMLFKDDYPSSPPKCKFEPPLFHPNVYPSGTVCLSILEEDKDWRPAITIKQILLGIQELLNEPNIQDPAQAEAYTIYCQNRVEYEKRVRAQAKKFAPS
Chain of Lysine-specific demethylase 4A (O75164 whole entry): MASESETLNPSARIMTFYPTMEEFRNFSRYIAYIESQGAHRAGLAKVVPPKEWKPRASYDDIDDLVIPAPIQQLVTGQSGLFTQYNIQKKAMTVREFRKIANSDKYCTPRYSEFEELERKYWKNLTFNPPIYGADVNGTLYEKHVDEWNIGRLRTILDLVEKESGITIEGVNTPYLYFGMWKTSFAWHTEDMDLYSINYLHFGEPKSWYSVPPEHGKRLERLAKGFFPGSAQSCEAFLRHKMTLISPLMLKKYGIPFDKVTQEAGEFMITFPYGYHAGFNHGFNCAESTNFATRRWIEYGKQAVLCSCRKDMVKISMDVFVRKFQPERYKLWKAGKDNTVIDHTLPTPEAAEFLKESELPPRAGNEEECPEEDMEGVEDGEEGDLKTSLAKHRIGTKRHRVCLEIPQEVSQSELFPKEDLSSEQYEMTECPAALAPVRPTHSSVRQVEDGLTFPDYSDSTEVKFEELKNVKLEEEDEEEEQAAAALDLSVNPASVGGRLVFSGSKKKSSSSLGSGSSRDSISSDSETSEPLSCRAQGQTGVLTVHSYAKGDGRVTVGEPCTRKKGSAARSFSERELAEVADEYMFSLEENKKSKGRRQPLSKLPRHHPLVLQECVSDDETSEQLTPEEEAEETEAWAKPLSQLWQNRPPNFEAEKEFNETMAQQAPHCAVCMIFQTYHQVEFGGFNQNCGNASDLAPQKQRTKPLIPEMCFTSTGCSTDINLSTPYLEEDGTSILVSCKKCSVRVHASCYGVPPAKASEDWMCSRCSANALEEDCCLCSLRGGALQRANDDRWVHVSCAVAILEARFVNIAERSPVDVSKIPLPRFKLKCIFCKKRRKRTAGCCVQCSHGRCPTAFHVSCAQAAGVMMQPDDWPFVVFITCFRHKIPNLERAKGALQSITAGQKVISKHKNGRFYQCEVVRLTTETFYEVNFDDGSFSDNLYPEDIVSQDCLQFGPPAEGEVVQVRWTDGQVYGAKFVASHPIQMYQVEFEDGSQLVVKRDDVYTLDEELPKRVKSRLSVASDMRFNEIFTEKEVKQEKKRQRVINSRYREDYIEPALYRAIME
Chain of Intestinal-type alkaline phosphatase (Mus musculus, UniProt P24822) (P24822 whole entry): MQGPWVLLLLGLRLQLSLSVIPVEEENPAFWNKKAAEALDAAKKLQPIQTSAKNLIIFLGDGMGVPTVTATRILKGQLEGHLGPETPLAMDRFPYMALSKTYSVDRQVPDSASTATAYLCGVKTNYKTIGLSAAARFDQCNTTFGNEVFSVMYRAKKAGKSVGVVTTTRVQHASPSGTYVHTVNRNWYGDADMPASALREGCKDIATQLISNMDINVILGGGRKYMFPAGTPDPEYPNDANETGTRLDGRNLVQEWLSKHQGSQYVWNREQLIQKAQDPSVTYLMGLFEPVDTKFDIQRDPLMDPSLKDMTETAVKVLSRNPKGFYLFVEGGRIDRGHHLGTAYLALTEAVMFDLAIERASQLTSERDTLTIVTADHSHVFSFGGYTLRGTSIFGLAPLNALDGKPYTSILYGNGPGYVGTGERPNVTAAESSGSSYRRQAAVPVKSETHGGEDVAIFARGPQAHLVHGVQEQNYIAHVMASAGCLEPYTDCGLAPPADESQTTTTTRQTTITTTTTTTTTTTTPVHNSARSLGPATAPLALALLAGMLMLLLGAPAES

In the case of S=c1[nH]nc(-c2cc(-c3ccccc3)[nH]n2)n1N=Cc1ccc(Br)s1, the IC50 (SUMO E1/E2) is reported as 11.3 µM (active).
For CC(=O)C1=C(c2ccccc2)N(C(C)=O)n2c(C)nnc2S1, the EC50 (Hexokinase-1) was 20.8 µM (inactive), the IC50 [1] was 11.3 µM (active) and the AC50 [2] was 0.8 µM (active). The EC50 (Beta-galactosidase) was 16.8 µM (active), the EC50 [3] was 191 µM (active) and the AC50 [4] was 56.3 µM (active). The EC50 (Hexokinase HKDC1) was 26 µM (inactive) and the EC50 [5] was 10.7 µM (active).
With COC(=O)C(Cc1ccc(OC(=O)c2ccc(C(F)(F)F)cc2)cc1)N1Cc2ccccc2C1=O (configuration not stated) the IC50 [6] was > 100 µM (active), the CC50 [7] was 37.4 µM (active) and the AC50 (Cytochrome P450 3A4) was “inconclusive”.
With O=C(Cc1ccc(Cl)c(Cl)c1)NNC(=S)NCC1CCCO1 (configuration not stated) the EC50 [8] was 20.2 µM (active), the IC50 [9] was 49.6 µM (active) and the EC50 [10] was 14.3 µM (active). For the same compound, the EC50 [11] was 17.5 µM (active).
In the case of Clc1ccc2c(N3CCNCC3)ccnc2c1, the AC50 (Candida albicans) is reported as 21.7 µM (active).
